In PubChem BioAssay (NCI):
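Interpolation was linear, between the two tested concentrations surrounding the appropriate level; five concentrations were tested over 48 hours in 96-well plates. GI50 = concentration required for 50% inhibition of growth. TGI: total growth inhibition.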

Assays:
Test in all cases: DTP human tumour cell line panel, 48 h
ACHN renal = system: ACHN renal
CCRF-CEM leukemia = system: CCRF-CEM leukemia
HCT-116 colon = system: HCT-116 colon
K-562 leukemia = system: K-562 leukemia
KM12 colon = system: KM12 colon
MDA-MB-435 = system: MDA-MB-435
SK-MEL-2 melanoma = system: SK-MEL-2 melanoma
SNB-75 CNS = system: SNB-75 CNS
SW-620 colon = system: SW-620 colon
U251 CNS = system: U251 CNS

SMILES | GI50 (ACHN renal) [µM] | TGI (ACHN renal) [µM] | GI50 (CCRF-CEM leukemia) [µM] | TGI (CCRF-CEM leukemia) [µM] | GI50 (HCT-116 colon) [µM] | TGI (HCT-116 colon) [µM] | GI50 (K-562 leukemia) [µM] | TGI (K-562 leukemia) [µM] | TGI (KM12 colon) [µM] | GI50 (MDA-MB-435) [µM] | TGI (MDA-MB-435) [µM] | GI50 (SK-MEL-2 melanoma) [µM] | TGI (SK-MEL-2 melanoma) [µM] | GI50 (SNB-75 CNS) [µM] | TGI (SNB-75 CNS) [µM] | GI50 (SW-620 colon) [µM] | TGI (SW-620 colon) [µM] | GI50 (U251 CNS) [µM] | TGI (U251 CNS) [µM] | GI50 (KM12 colon) [µM]
CCN1Cc2c(ccc(F)c2C#N)O[C@@H](C)CNC(=O)c2c(N)nn3ccc1nc23 | 0.676 | 6.86 | 3.74 | > 100 | 1.25 | 11.5 | 0.175 | > 100 | 69.7 | 2.74 | 20.2 | 1.72 | 5.22 | 0.465 | 3.82 | 3.87 | 80.2 | 5.34 | 32.4 | –
COc1ccc(C(=O)/C=C/c2ccc3c(c2)OCO3)c(OCc2ccccc2)c1 | – | > 100 | – | > 26.9 | – | > 100 | – | > 100 | > 100 | – | > 100 | – | > 100 | – | > 100 | – | > 100 | – | > 100 | –
COc1cccc2c1C(=O)c1c(O)c3c(c(O)c1C2=O)C[C@@](O)(C(=O)CO)C[C@@H]3O[C@H]1C[C@H](N)[C@@H](O)[C@H](C)O1 | – | – | 0.0919 | 0.95 | 0.112 | 5.17 | 0.147 | 5.05 | 18.2 | 0.465 | 1.29 | 0.514 | 3.09 | 0.084 | 0.634 | – | 7.61 | – | 16.4 | 0.502
CC(C)c1c(O)ccc2c1CCC1C(C)(C)CCCC21C (stereo unspecified) | – | 30.8 | – | 49.3 | – | 31 | – | 50 | 42.7 | – | 38.5 | – | 31.9 | – | 33.1 | – | 40.1 | – | 33.2 | –
CCCCCCCCCCC(C(O)c1ccccc1)N1CCCCC1 (stereo unspecified) | 2.19 | 4.95 | 1.97 | 7.77 | 1.62 | 3.01 | 2.19 | 5.93 | 2.72 | 1.66 | 3.03 | 2.25 | 4.84 | 2.32 | 5.65 | 1.7 | 3.21 | 1.74 | 3.46 | 1.29
C=C(C)[C@@H]1CC[C@]2(C)[C@H](CC=C3[C@@H]4[C@@H](C)[C@H](C)CC[C@]4(C(N)=O)CC[C@]32C)[C@@]1(C)CCC#N | 3.37 | > 100 | 3.73 | 45 | 15.6 | 29.9 | 3.38 | > 100 | 23.2 | 4.36 | > 100 | 6.98 | 23.2 | 3.57 | > 100 | 4.5 | > 100 | 4.32 | 18.3 | 3.47
COc1cc(/C=N/NC(=O)c2cnn3c2NC(c2ccccc2)C3)ccc1Oc1ccccc1 (stereo unspecified) | 1.33 | 7.31 | 1.43 | > 100 | – | – | 0.571 | 18.6 | 3 | 0.293 | 1.43 | 1.14 | 4.89 | 1.3 | 3.41 | 0.868 | 10.1 | 1.31 | 3.59 | 0.528
CCN1C(=O)N(c2ccccc2)C2NC(=S)N(/N=C/C=C/c3ccccc3)C21 (stereo unspecified) | 0.763 | > 100 | 0.35 | > 100 | 0.297 | > 100 | 0.155 | > 100 | > 100 | 0.0314 | 0.216 | 0.345 | > 94.2 | > 100 | > 100 | 0.38 | > 100 | 0.44 | > 100 | 0.358
COc1ccccc1N1CCN(CCc2c[nH]c3cc4c(cc23)OCO4)CC1 | 21.3 | > 100 | 29.8 | > 100 | 10.9 | > 100 | 24.4 | > 100 | > 100 | 14 | 52.3 | 21.3 | 56.3 | 25 | > 100 | 22 | > 100 | 32.2 | > 100 | 27.3
O=C(c1ccccc1)C(Br)C(Br)c1cccc([N+](=O)[O-])c1 (stereo unspecified) | 1.46 | 2.77 | 0.574 | 2.78 | 0.864 | 2.08 | – | – | 3.05 | 2.52 | 7.19 | 3.03 | 8.48 | 6.48 | 19.8 | 0.342 | 1.49 | 1.56 | 3.02 | 1.61
CCC[CH2][Sn]([CH2]CCC)([CH2]CCC)[O]C(=O)c1ccc(Cl)cc1Cl | 0.171 | 0.34 | – | – | 0.127 | 0.262 | 0.263 | 1.02 | 0.283 | 0.16 | 0.335 | 0.149 | 0.333 | 0.117 | 0.248 | 0.158 | 0.335 | 0.17 | 0.33 | 0.139
Cc1cc2[nH]c(=O)c3c4ccccc4cn3c2cc1C | 10.2 | 23.5 | 9.92 | 31.2 | 1.58 | 3.13 | – | – | 21.5 | 6 | 19.8 | 18.1 | 34.8 | 15.5 | 30.4 | 3.83 | 33.2 | 4.03 | 14.2 | 7.06
COc1ccc(NC(=O)COCCOCCNC[C@@H]2C(=O)O[C@H]3[C@H]2CC/C(COC(=O)OC/C2=C/CC[C@@]4(C)O[C@H]4[C@H]4OC(=O)[C@@H](CN(C)C)[C@@H]4CC2)=C\CC[C@@]2(C)O[C@@H]32)c(O)c1C(N)=O | 0.987 | 2.21 | 1.21 | 3.27 | 3.5 | 9.86 | – | – | 22.5 | 5.19 | 12.3 | 9.69 | 20.3 | 10.2 | > 50 | 1.14 | 2.87 | 8.87 | 18 | 9.72
Nc1nc(N)c2c(n1)NC(c1ccc(F)cc1)C1CCc3ccccc3C1=N2 (stereo unspecified) | 4.96 | 17.8 | – | – | 3.04 | 11.9 | – | – | 17 | 2.84 | 11.6 | 5.73 | 19.6 | 11.3 | 23.8 | 4.87 | 17.4 | 4.29 | 16.9 | 4.93
O=c1[nH]c(=O)c2cc(C3CC(O)C(CO)O3)ccc2[nH]1 (stereo unspecified) | – | – | > 100 | > 100 | > 100 | > 100 | > 100 | > 100 | – | > 100 | > 100 | > 100 | > 100 | 26.8 | > 100 | > 100 | > 100 | > 100 | > 100 | –
CC[C@@]1(OC(=O)CN)C(=O)OCc2c1cc1n(c2=O)Cc2cc3c(N)cccc3nc2-1 | < 0.01 | 0.0287 | < 0.01 | > 100 | – | – | < 0.0367 | – | 1.92 | 0.0476 | 0.336 | 0.132 | 0.49 | – | – | 0.0247 | 3.78 | < 0.01 | 0.405 | 0.158
S=c1ssc(Oc2ccccc2)c1Cl | 4.5 | 16.1 | 1.02 | 5.84 | – | – | 2.68 | > 100 | 26 | 14.2 | 27.2 | 33.9 | 83.3 | 18 | 45 | 1.9 | 5.24 | 7.06 | 26.4 | 13.2
COc1ccc(/C(=N\O)c2cc(C)c(OC)c(C)c2)cc1O | < 0.01 | > 100 | 0.0185 | > 100 | < 0.01 | > 100 | – | – | > 100 | < 0.01 | – | 0.0328 | > 100 | – | – | < 0.01 | > 100 | < 0.01 | > 100 | < 0.01
Oc1ccccc1C=Nc1nc(SCc2ccccc2)nc2[nH]ncc12 | 41.7 | > 100 | 45.7 | > 100 | – | – | 35.2 | > 100 | > 100 | 35.8 | > 100 | > 100 | > 100 | > 100 | > 100 | 40 | > 100 | 46.4 | > 100 | 37.5
O=S(=O)(c1cccc2c(Cl)cccc12)N1CCCNCC1 | 14.4 | 27.4 | 15.1 | 28.4 | 10.3 | 21.9 | 12.7 | 25.3 | 28.2 | 14.9 | 28.6 | 17.6 | 34.3 | – | – | 17.9 | 31.8 | 14.6 | 27.7 | 15
